Common to all, as to assay type: in vivo
The subject of experiment [1] is Brachiaria decumbens (BRADC). Kind of experiment: Biological Example 3 glasshouse assay, post-emergence, various adjuvant systems. The settings on record: 8 g/ha. The method, then:
(§1) Post-emergence foliar spray application, 200 L/ha, usually one or two replicates for the weeds (depending on application rate), and two replicates for soybean.
(§2) Standard warm conditions (tropical), in glasshouse. Specifically, the glasshouse bay conditions are 24° C./18° C. day/night; 16/8 hours light/dark; 65% humidity.
(§3) The herbicidal application takes place at the following growth stages for plants which include inter alia one or more of the following plants (usually the herbicidal application takes place on at least the following plants: DIGSA, ELEIN, SETFA, ZEAMX, GLXMA Nikko, and GLXMA TMG133, and often also either BRADC or BRAPP):
Brachiaria decumbens (BRADC)—growth stage (GS) 12 or 13 (or GS 12)—or, if BRADC is not used, then sometimes Brachiaria platyphylla (BRAPP)—growth stage 12 or 13
(§4) Each test compound is applied with one of the following adjuvant systems (all percentages are final concentrations in the aqueous spray mixture):
(§5) Adjuvant system 2: 0.5% v/v Hexamoll™ DINCH**, 1.0% v/v AMS (ammonium sulphate) and 12.5% v/v IPA (isopropyl alcohol).
(§6) Adjuvant system 3: 0.5% v/v tris-(2-ethylhexyl)phosphate (“TEHP”), 1.0% v/v AMS (ammonium sulphate) and 12.5% v/v IPA (isopropyl alcohol).
(§7) Seeds of the weed (including volunteer) plants, typically including inter alia Digitaria sanguinalis (DIGSA), Eleusine indica (ELEIN), Setaria faberi (SETFA), Zea mays (ZEAMX, corn), and sometimes also [either Brachiaria decumbens (BRADC) or Brachiaria platyphylla (BRAPP)], are sown in seed trays (troughs) containing clay loam soil (pH 7.0, 2.2% organic matter, “Trough Mix A”); and soybean seed is sown in pots containing the same soil with 3 soybean seedlings per pot. The plants are sprayed with the test herbicide when they reach the growth stages mentioned above.
(§8) The test herbicidal solutions are prepared by mixing the appropriate aliquots of the test substance(s) and one of the adjuvant systems indicated above *** in deionised water to give the desired treatment concentration.
(§9) The herbicidal application is made as a foliar spray, using a tracksprayer. Following the herbicidal application, the plants are watered twice per day for the duration of the test.
(§10) A visual assessment of the % herbicidal damage is made 7 and 14 Days After herbicide Application (DAA) (or, in a minority of cases, 7 and 15 DAA), and the results are recorded as % visual herbicidal damage where 0%=no damage to plants and 100%=plant totally killed.
Compounds A2 and A7 were tested using the 0.5% v/v Hexamoll™ DINCH™+1.0% v/v AMS+12.5% v/v IPA adjuvant system. Compounds A11, A12, A14, A20 and A21 were tested using the 0.5% v/v tris-(2-ethylhexyl)phosphate (“TEHP”)+1.0% v/v AMS+12.5% v/v IPA adjuvant system. […]

Experiment [2] has as its system Setaria faberi (SETFA). Described as above. The settings on record: 8 g/ha. The procedure: as §1, §2, §3
Setaria faberi (SETFA)—growth stage 12 or 13
as §4, §5, §6, §7, §8, §9, §10
(§11) Compounds A2 and A7 were tested using the 0.5% v/v Hexamoll™ DINCH™+1.0% v/v AMS+12.5% v/v IPA adjuvant system. Compounds A11, A12, A14, A20 and A21 were tested using the 0.5% v/v tris-(2-ethylhexyl)phosphate (“TEHP”)+1.0% v/v AMS+12.5% v/v IPA adjuvant system.
(§12) The percentages of herbicidal damage/plant control, at 14 Days After herbicide Application (DAA) (or, in some cases, at 15 DAA), for the Compounds tested and for some of the plants tested, were in the following percentage ranges. For the tested compounds, the phytotoxicity results shown herein are generally the average of 2 or 3 repetitions (for the grassy weeds including corn) or the average of 2 repetitions (for soybean for most of the tested compounds). However, for Compound A2 on soybean there was 1 repetion only.

Experiment [3] concerns Lolium perenne (LOLPE). Kind of experiment: Test 1 glasshouse assay, post-emergence herbicidal activity. To be noted: 312 h, post-emergence (Example 1B Table 2), after 13 days, read-out: Percentage phytotoxicity LOLPE. Put shortly: (§13)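 Post-emergence: plants sprayed after 8 days' growth in a glasshouse (24/16 °C day/night, 14 h light, 65% humidity) with compound in acetone/water 50:50 containing 0.5% Tween 20. Phytotoxicity was scored visually 13 days later as percent damage (0 = none, 100 = total).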

The subject of experiment [4] is Triticum aestivum (TRZAW, winter wheat). The description is as above. To be noted: 312 h, post-emergence (Example 1B Table 2), after 13 days, crop plant, read-out: Percentage phytotoxicity TRZAW. The procedure, abridged: as §13
In experiment [5] the test system is Avena fatua (AVEFA). The experiment is described as above. To be noted: 312 h, post-emergence (Example 1B Table 2), after 13 days, read-out: Percentage phytotoxicity AVEFA. The procedure, abridged:
as §13

Experiment [6] concerns Digitaria sanguinalis (DIGSA). Kind of experiment: Biological Example 3 glasshouse assay, post-emergence, various adjuvant systems. To be noted: 8 g/ha. The procedure: as §1, §2, §3
Digitaria sanguinalis (DIGSA)—growth stage 12 or 13
as §4, §5, §6, §7, §8, §9, §10, §11, §12

Experiment [7] concerns Glycine max (GLXMA, soybean) cultivar Nikko. The experiment is described as above. The settings on record: crop. The method, then:
as §1, §2, §3
Glycine max (GLXMA, soybean) cultivar “Nikko”—growth stage: 1st trifoliate
as §4, §5, §6, §7, §8, §9, §10, §11, §12

For experiment [8], the system named is Glycine max (GLXMA, soybean) cultivar TMG133 (Roundup Ready glyphosate-tolerant). Described as above. The settings on record: crop. The method, then:
as §1, §2, §3
Glycine max (GLXMA, soybean) cultivar “TMG133”—which is Roundup Ready™ glyphosate-tolerant soybean cultivar TMG133 (typically available from Monsanto in Brazil)—growth stage: 1st trifoliate.
as §4, §5, §6, §7, §8, §9, §10, §11, §12
Glycine max (GLXMA, soybean) cultivar “TMG133” is Roundup Ready™ glyphosate-tolerant soybean cultivar TMG133, and is typically available from Monsanto in Brazil.

The mark [9] stands for this setting: 14 DAA, adjuvant 0.5% v/v Hexamoll DINCH + 1.0% v/v AMS + 12.5% v/v IPA.
Where [10] appears, read: 120 g/ha, 14 DAA, adjuvant 0.5% v/v Hexamoll DINCH + 1.0% v/v AMS + 12.5% v/v IPA.
[11] abbreviates: 14 or 15 DAA, adjuvant 0.5% v/v TEHP + 1.0% v/v AMS + 12.5% v/v IPA.
Setting [12] is: 240 g/ha, 14 or 15 DAA, adjuvant 0.5% v/v TEHP + 1.0% v/v AMS + 12.5% v/v IPA.

Two compounds from patent US10375956B2, “Herbicidally active 2-(substituted-phenyl)-cyclopentane-1,3-dione compounds and derivatives thereof” (Syngenta Limited, priority 2013, dated 2019) can be followed below.

With `C#CCC1CC(=O)C(c2c(C)cc(-c3ccc(Cl)cn3)cc2C)C1=O` (stereo not shown) [Compound A2], in experiment [1] (setting [9]), the “percentage control of (phytotoxicity on) Brachiaria decumbens (BRADC)” value stood at 50%. Further, in experiment [2] (setting [9]), the “percentage control of (phytotoxicity on) Setaria faberi (SETFA)” value is reported as 90%. Moreover, in experiment [3], the pest or weed control at 62.5 g/ha was 70% and the pest or weed control at 250 g/ha is 100%. In addition, in experiment [4], the plant injury at 62.5 g/ha was 70% and the plant injury at 250 g/ha is 90%. Also, in experiment [5], the pest or weed control at 62.5 g/ha is 80% and the pest or weed control at 250 g/ha was 100%. The “percentage control of (phytotoxicity on) Digitaria sanguinalis (DIGSA)” value in experiment [6] (setting [9]) is listed as 90%. In experiment [7] (setting [10]), the “percentage phytotoxicity on Glycine max cultivar Nikko” value is 10%. Further, the “percentage phytotoxicity on Glycine max cultivar TMG133” value in experiment [8] (setting [10]) worked out at 20%.

For the compound `C#CCC1CC(=O)C(c2c(Cl)cc(-c3ccc(F)cc3F)cc2OC)C1=O` (stereo not shown) [Compound A12], in experiment [1] (setting [11]), the “percentage control of Brachiaria decumbens (BRADC)” value stood at 99%. Moreover, in experiment [2] (setting [11]), the “percentage control of Setaria faberi” value was determined as 95%. Besides, in experiment [3], the pest or weed control at 62.5 g/ha turned out to be 70% and the pest or weed control at 250 g/ha came to 100%. For the same compound, in experiment [4], the plant injury at 62.5 g/ha turned out to be 70% and the plant injury at 250 g/ha stood at 80%. Also, in experiment [5], the pest or weed control at 62.5 g/ha turned out to be 60% and the pest or weed control at 250 g/ha was determined as 100%. In addition, in experiment [6] (setting [11]), the “percentage control of Digitaria sanguinalis” value was 98.5%. Further, the “percentage phytotoxicity on Glycine max cultivar Nikko” value in experiment [7] (setting [12]) was found to be 15%. In experiment [8] (setting [12]), the “percentage phytotoxicity on Glycine max cultivar TMG133” value is 15%.
